Reference: patent US20210260101A1, “POTENTIATED ANTIBIOTIC COMPOSITIONS AND METHODS OF USE FOR TREATING BACTERIAL INFECTIONS AND BIOFILMS” (priority 2018, published 2021)
Values joined by “and” are separate entries in the source; they are usually repeats but may differ in a detail not shown here. Equal entries are not always repeated. Where two headings read alike, the source gives them in different places. Marks after values point to notes of the source that are not given here.

Legend:
MRSE 35984 biofilms = experiment: Biofilm kill curve; assay type: cell-based, Staphylococcus epidermidis; details: 64 μg/mL BPEI, 16 μg/mL oxacillin, or both
Protocol: Biofilm was grown in an MBEC inoculator plate for 24 hours with shaking to facilitate biofilm formation. At time zero, the prongs were sonicated in PBS for 30 minutes and then plated on agar for CFU counting. […] The prongs on the MBEC inoculator were washed in PBS for 10 seconds and then transferred into the new treated base plate and incubated. Agar CFU plating was performed at 2 hours, 4 hours, 8 hours, and 24 hours for each treatment group. All the agar plating was incubated at 35° C. and counted for colony forming units the next day. Each trial was done in duplicate.

[1] = tested on: S. epidermidis ATCC 12228 (MSSE 12228); experiment: MIC/potentiation against MSSE 12228; assay type: cell-based, Staphylococcus epidermidis
[2] = tested on: MRSA clinical isolate OU6; experiment: Clinical laboratory susceptibility (MicroScan), MRSA isolate 6; assay type: cell-based, S. aureus; details: MicroScan PC33 gram positive panel
MRSA USA300 (BAA-1717) = experiment: Checkerboard assay (Example 3), MRSA USA300; assay type: cell-based, Staphylococcus aureus; details: for MIC: MRSA USA300, agent alone
Protocol: (§1) Cells were grown at 37° C. The change in OD600 (optical density at 600 nm) was measured and recorded after 24 hr of treatment. Each checkerboard trial was done in triplicate using sterile Greiner CellStar™ flat bottom polystyrene plates, catalog #655180.

MRSE 35984 biofilm = experiment: MBEC assay (challenge plate MIC, recovery plate MBEC), MRSE 35984; assay type: cell-based, Staphylococcus epidermidis
Protocol: A sub-culture of MRSE was grown from the cryogenic stock on an agar plate overnight at 35° C. The MBEC plate was inoculated with 150 μL of TSB/well plus 1 μL of a stock culture made from 1 colony/mL of MRSE in TSB. The MBEC inoculator plate was sealed with Parafilm and incubated for 24 hours at 35° C. with 100 rpm shaking to facilitate biofilm formation on the prongs. Following biofilm formation, the lid of the MBEC inoculator was removed and placed in a rinse plate containing 200 μL of sterile PBS for 10 sec. Biofilm growth check (BGC) was performed by breaking a few prongs off using sterile pliers, submerging them in 1 mL PBS, and sonicating them on high for 30 minutes to dislodge the biofilm. After sonication, the biofilm solution was serial-diluted and spot-plated on agar plates for CFU counting to determine the biofilm density on the prongs.
A challenge plate was made in a new pre-sterilized 96-well plate in a checkerboard-assay pattern to test the synergistic activity of BPEI+antibiotic combinations. Antimicrobial solutions were serial-diluted and added to the 96-well plate, which contained 200 μL of cation-adjusted Mueller-Hinton broth (MHB) per well. Following the rinsing step and biofilm growth check, the MBEC inoculator lid was immediately transferred into the prepared antimicrobial challenge plate and incubated at 35° C. for 20-24 hours. After the challenge period, the MBEC inoculator lid was transferred into a recovery plate containing 200 μL of MHB per well, sonicated on high for 30 minutes to dislodge the biofilm and then incubated at 35° C. for 20-24 hour to allow the surviving bacterial cells to grow. After incubation, the OD600 (optical density at 600 nm) of the recovery plate was measured using a Tecan Infinite M20 plate reader to determine the MBEC of the antimicrobial compounds tested. A change in OD600 greater than 0.05 indicated positive growth. Likewise, the OD600 for the base of the challenge plate was measured […] to determine the MICs of the antimicrobial compounds.

[3] = tested on: S. epidermidis ATCC 35984 (MRSE 35984); experiment: MIC/potentiation against MRSE 35984 (Example 1); assay type: cell-based, Staphylococcus epidermidis
MRSA MW2 = experiment: Checkerboard assay (Example 3), MRSA MW2; assay type: cell-based, Staphylococcus aureus; details: for MIC: MRSA MW2, agent alone
Protocol: as §1

MRSA USA 300 ATCC 1717 = experiment: Checkerboard MIC assay against MRSA USA300 (Example 1); assay type: cell-based, Staphylococcus aureus; details: for MIC: Staphylococcus aureus
MRSE 35984 = experiment: Checkerboard assay (Example 3), MRSE 35984; assay type: cell-based, Staphylococcus epidermidis
Protocol: as §1

[4] = tested on: MRSA clinical isolate OU11; experiment: Clinical laboratory susceptibility (MicroScan), MRSA isolate 11; assay type: cell-based, S. aureus; details: MicroScan PC33 gram positive panel

Compound: Cc1onc(-c2ccccc2)c1C(=O)N[C@@H]1C(=O)N2[C@@H]1SC(C)(C)[C@@H]2C(=O)O [oxacillin]
- biofilm cell density at 24 hours (MRSE 35984 biofilms): ~10^3 CFU/mL
- MIC, antibiotic + 2 μg/ml (3.375 μM) 600-Da BPEI [1]: 0.1 µg/mL
- MIC, antibiotic + 4 μg/ml (6.75 μM) 600-Da BPEI [1]: 0.1 µg/mL
- MIC of antibiotic only ([1]; agent alone): 0.1 µg/mL
- MIC [2]: > 2 µg/mL
- OXA MIC in combination with 600 Da BPEI (MRSA USA300 (BAA-1717); BPEI amount in same cell): 4 µg/mL
- MIC (MRSA USA300 (BAA-1717); listed as OXA): 32 µg/mL and 16 µg/mL
- OXA MIC in combination with PEG-BPEI (MRSA USA300 (BAA-1717); PEG-BPEI amount in same cell): 2 µg/mL
- MIC (MRSA USA300 (BAA-1717); Staphylococcus aureus, read-out: MIC): 32 µg/mL
- MBEC, antibiotic + 4 μg/ml (6.75 μM) 600-Da BPEI (MRSE 35984 biofilm; MRSE 35984 biofilm): 8* μg/ml
- oxacillin MBEC with 8 μg/mL of BPEI (MRSE 35984 biofilm; MRSE 35984 biofilm): 32 µg/mL
- oxacillin MBEC with 64 μg/mL of BPEI (MRSE 35984 biofilm; MRSE 35984 biofilm): 8 µg/mL
- oxacillin MBEC in the presence of 13 μM of BPEI600 (MRSE 35984 biofilm; MRSE biofilm): 16 µg/mL
- MIC (MRSE 35984 biofilm; Staphylococcus epidermidis, MRSE 35984 planktonic, agent alone): 16 µg/mL
- MIC, antibiotic + 2 μg/ml (3.375 μM) 600-Da BPEI [3]: 2 µg/mL
- MIC, antibiotic + 4 μg/ml (6.75 μM) 600-Da BPEI [3]: 0.25 µg/mL
- fold reduction of oxacillin MIC ([3]; adding 6.75 μM of BPEI600): 256 fold
- MIC of antibiotic only ([3]; agent alone): 64 µg/mL
- OXA MIC in combination with 600 Da BPEI (MRSA MW2; BPEI amount in same cell): 2 µg/mL
- MIC (MRSA MW2; listed as OXA): 32 µg/mL and 16 µg/mL
- OXA MIC in combination with PEG-BPEI (MRSA MW2; PEG-BPEI amount in same cell): 4 µg/mL
- MIC (MRSA MW2; Staphylococcus aureus, MRSA, read-out: MIC): 32 µg/mL
- MIC with 4 μg/ml (6.75 μM) 600-Da BPEI (MRSA USA 300 ATCC 1717; MRSA USA300): 1 µg/mL
- MIC, antibiotic + 16 μg/ml (17 μM) PEG350BPEI600 (MRSA USA 300 ATCC 1717; MRSA USA300): 0.5 µg/mL
- MIC, antibiotic + 64 μg/ml (40 μM) PEG1000BPEI600 (MRSA USA 300 ATCC 1717; MRSA USA300): 0.5 µg/mL
- MIC (MRSA USA 300 ATCC 1717; MRSA USA300, agent alone, read-out: MIC of antibiotic only): 16 µg/mL
- MIC (MRSA USA 300 ATCC 1717; MRSA USA300, read-out: oxacillin MIC with 16 μg/mL of PEG350BPEI600 (17 μM)): 0.5 µg/mL
- effect of 50% FBS on oxacillin MIC (MRSA USA 300 ATCC 1717; potentiation in fetal bovine serum vs CAMHB without FBS): does not change
- fold reduction of oxacillin MIC (MRSA USA 300 ATCC 1717; with BPEI600, MRSA USA300): 2 fold
- OXA MIC in combination with 600 Da BPEI (MRSE 35984; BPEI amount in same cell): 8 µg/mL
- MIC (MRSE 35984; MRSE 35984, agent alone): 32 µg/mL
- MIC (MRSE 35984; MRSE 35984, agent alone, listed as OXA): 32 µg/mL and 64 µg/mL
- OXA MIC in combination with PEG-BPEI (MRSE 35984; PEG-BPEI amount in same cell): 8 µg/mL
- MIC (MRSE 35984; Staphylococcus epidermidis, MRSE, MRSE 35984, agent alone, read-out: MIC): 64 µg/mL
- MIC (MRSE 35984; Staphylococcus epidermidis, MRSE, read-out: oxacillin MIC with 6.67 μM BPEI600, MRSE planktonic cells): 4 µg/mL
- MIC (MRSE 35984; Staphylococcus epidermidis, MRSE, read-out: oxacillin MIC with 33.37 μM of PEG350-BPEI600, MRSE planktonic cells): 4 µg/mL
- MIC [4]: > 2 µg/mL
